# Laboratory results taken from ChEMBL document CHEMBL5532640, “Medicinal chemistry strategies targeting NLRP3 inflammasome pathway: A recent update from 2019 to mid-2023” (Eur J Med Chem, 2023).
# Legend:
# [1] = molecular target: T1, NACHT, LRR and PYD domains-containing protein 3 (Homo sapiens, UniProt Q96P20); experiment: Inhibition of NLRP3 in human THP-1 cells assessed as reduction in LPS/ATP induced IL-1beta release at 10 uM preincubated with LPS for 4 hrs followed by compound addition for 1 hr prior to ATP stimulation for 1.5 hrs by ELISA relative to control; format: cell-based; conditions: time 2.5 hrs
# [2] = molecular target: T2, NACHT, LRR and PYD domains-containing protein 3 (Mus musculus, UniProt Q8R4B8); experiment: Inhibition of NLRP3 inflammasome in mouse J774.A1 cells assessed as decrease in LPS/nigericin induced IL-1beta level preincubated with LPS for 4 hrs followed by compound addition for 1 hr in presence nigericin by ELISA; format: cell-based
# [3] = molecular target: T2, NACHT, LRR and PYD domains-containing protein 3; experiment: Inhibition of NLRP3 inflammasome in mouse BMDMs assessed as reduction in IL-1beta activity preincubated with LPS for 4 hrs followed by compound addition for 30 mins prior to nigericin addition and measured after 1 hr by ELISA; format: cell-based, BMDM
# [4] = Inhibition of LPS/nigericin induced LDH release in mouse J774.A1 cells; format: functional, cell-based
# [5] = molecular target: T2, NACHT, LRR and PYD domains-containing protein 3; experiment: Inhibition of NLRP3 in LPS/ATP induced mouse J774.A1 cells; format: cell-based
# [6] = Cytotoxicity against mouse J774.A1 cells; format: toxicity, cell-based; conditions: read-out: TC50 (the source's name)
# [7] = molecular target: T1, NACHT, LRR and PYD domains-containing protein 3; experiment: Inhibition of NLRP3 inflammasome in human MDM cells assessed as reduction in LPS/nigericin induced IL-1beta secretion […] prior to nigericin addition and measured after 5 hrs by ELISA; format: cell-based
# [8] = Cmax in human at 1000 mg per day, po administered for 8 consecutive days; format: ADME, organism-based; conditions: in vivo
# [9] = molecular target: T2, NACHT, LRR and PYD domains-containing protein 3; experiment: Inhibition of NLRP3 in mouse J774.A1 cells assessed as reduction in LPS/ATP induced IL-1beta secretion; format: cell-based
# [10] = molecular target: T2, NACHT, LRR and PYD domains-containing protein 3; experiment: Covalent inhibition of NLRP3 in mouse BMDMs assessed as reduction in LPS/nigericin induced IL-1beta secretion pretreated with LPS for 3 hrs followed by compound addition for 30 mins prior to nigericin addition and measured after 30 mins by ELISA; format: cell-based, BMDM
# [11] = molecular target: T2, NACHT, LRR and PYD domains-containing protein 3; experiment: Inhibition of NLRP3 in mouse BMDMs assessed as reduction in LPS/ATP-induced IL-1beta release preincubated for 30 mins in presence of LPS followed by ATP addition and measured after 1 hr by ELISA; format: cell-based, BMDM
# [12] = Stability in human liver microsomes assessed as compound remaining after 60 mins; format: ADME, Microsome; conditions: read-out: Stability
# [13] = Stability in mouse liver microsomes assessed as compound remaining after 60 mins; format: ADME, Microsome; conditions: read-out: Stability
# [14] = Half life in C57BL/6 mouse at 20 mg/kg, po; format: ADME, organism-based; conditions: in vivo
# [15] = Inhibition of porcine whole blood NLRP3 assessed as reduction in LPS/ATP induced IL-1beta secretion preincubated for 3 hrs in presence of LPS followed by ATP addition and measured after 1 hr by immunoassay; conditions: Sus scrofa
# [16] = molecular target: T1, NACHT, LRR and PYD domains-containing protein 3; experiment: Inhibition of NLRP3 in LPS/ATP induced human THP1 cells; format: cell-based, THP-1
# [17] = Solubility of the compound at pH 1.5; format: physicochemical; conditions: buffer
# T2 sequence (Q8R4B8 whole entry, the tested form may be a part): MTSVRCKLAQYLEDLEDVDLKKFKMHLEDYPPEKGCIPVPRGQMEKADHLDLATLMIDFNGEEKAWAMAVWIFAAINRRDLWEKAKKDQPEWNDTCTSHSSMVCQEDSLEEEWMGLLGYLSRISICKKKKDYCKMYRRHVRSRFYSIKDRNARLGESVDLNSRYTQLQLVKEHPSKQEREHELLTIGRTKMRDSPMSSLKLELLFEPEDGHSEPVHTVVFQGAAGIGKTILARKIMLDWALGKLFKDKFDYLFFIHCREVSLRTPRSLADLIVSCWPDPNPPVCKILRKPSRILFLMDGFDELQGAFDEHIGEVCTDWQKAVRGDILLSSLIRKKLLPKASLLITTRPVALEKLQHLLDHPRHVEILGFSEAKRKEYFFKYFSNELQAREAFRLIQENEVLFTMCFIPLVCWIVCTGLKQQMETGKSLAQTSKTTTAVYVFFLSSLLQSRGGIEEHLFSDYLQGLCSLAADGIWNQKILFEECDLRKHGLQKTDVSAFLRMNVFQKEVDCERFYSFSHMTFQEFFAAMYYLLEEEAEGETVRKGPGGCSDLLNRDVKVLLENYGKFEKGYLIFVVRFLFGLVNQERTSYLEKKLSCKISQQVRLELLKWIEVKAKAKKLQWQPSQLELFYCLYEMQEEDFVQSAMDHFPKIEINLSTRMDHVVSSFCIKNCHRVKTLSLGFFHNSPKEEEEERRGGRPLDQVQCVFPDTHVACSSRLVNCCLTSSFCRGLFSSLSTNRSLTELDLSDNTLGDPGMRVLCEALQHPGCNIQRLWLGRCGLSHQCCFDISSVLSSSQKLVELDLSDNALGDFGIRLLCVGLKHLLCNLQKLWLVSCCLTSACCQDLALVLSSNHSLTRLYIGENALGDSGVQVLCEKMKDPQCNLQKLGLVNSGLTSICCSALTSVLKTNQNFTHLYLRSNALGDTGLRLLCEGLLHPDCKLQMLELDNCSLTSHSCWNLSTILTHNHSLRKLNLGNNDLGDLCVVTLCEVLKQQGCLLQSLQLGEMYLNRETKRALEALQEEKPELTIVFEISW
# T1 sequence (Q96P20 whole entry, the tested form may be a part): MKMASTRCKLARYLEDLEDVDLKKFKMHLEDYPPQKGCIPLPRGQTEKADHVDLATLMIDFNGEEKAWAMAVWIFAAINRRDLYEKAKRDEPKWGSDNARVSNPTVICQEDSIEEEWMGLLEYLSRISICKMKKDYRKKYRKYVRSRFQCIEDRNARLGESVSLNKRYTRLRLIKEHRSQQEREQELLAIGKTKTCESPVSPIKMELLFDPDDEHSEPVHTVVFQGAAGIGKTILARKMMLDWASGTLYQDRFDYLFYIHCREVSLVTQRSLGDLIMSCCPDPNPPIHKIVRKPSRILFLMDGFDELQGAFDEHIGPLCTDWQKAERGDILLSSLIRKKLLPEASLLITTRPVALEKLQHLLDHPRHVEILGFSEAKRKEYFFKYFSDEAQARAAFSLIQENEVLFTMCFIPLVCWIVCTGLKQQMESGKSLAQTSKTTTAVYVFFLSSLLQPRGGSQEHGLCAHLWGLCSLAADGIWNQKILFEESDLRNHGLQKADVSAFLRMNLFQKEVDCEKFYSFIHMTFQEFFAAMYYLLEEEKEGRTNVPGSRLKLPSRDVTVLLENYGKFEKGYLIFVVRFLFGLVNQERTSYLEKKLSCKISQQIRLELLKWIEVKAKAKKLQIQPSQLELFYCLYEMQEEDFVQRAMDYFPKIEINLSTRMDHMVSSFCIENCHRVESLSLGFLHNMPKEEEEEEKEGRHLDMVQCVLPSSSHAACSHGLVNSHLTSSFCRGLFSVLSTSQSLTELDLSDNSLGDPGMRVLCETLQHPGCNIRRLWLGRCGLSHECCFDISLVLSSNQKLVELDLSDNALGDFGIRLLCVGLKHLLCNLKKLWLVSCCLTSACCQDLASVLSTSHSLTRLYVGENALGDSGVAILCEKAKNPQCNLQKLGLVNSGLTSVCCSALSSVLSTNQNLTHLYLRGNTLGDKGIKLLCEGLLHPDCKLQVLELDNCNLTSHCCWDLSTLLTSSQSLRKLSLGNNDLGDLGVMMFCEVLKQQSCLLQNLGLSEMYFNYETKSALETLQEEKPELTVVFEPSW
smiles,measurement,setting,value
O=C(CCc1ccccc1Cl)NCCn1c(=O)[nH]c2ccccc21,inhibition,[1],20.3%
CC1(C)OC(=O)C=C[C@@]2(C)[C@H]1CC(=O)[C@@]1(C)C3=CC[C@@H](C4=CC(=O)O[C@@H]4O)[C@]3(C)CC[C@@H]12,IC50,[2],3200 nM
CC(=O)O[C@H]1[C@@H](OC(C)=O)[C@@]2(C)C3=CC[C@@H](C4=CC(=O)O[C@@H]4O)[C@]3(C)CC[C@@H]2[C@@]2(C)C=CC(=O)OC(C)(C)[C@H]12,IC50,[2],3200 nM
COc1c(O)cc2c(c1C)C(=O)C=C1[C@@]2(C)CC[C@@]2(C)[C@@H]3C[C@@H](C)C(=O)[C@@H](O)[C@]3(C)CC[C@]12C,IC50,[3],1150 nM
CO[C@@H]1C2=C(C(=O)C(=O)C(C(C)C)=C2)[C@@]2(C)CCCC(C)(C)[C@@H]2[C@H]1O,IC50,[4],230 nM
NS(=O)(=O)c1ccc(CCNC(=O)/C=C/S(=O)(=O)c2ccccc2Cl)cc1,IC50,[5],1830 nM
same,CC50,[6],27500 nM
CS(=O)(=O)CCC#N,IC50,[7],1000 nM
same,Cmax,[8],41400 ng/mL
CC1=C(O)C(=O)C=C2C1=CC=C1[C@@]2(C)[C@@H](Br)C[C@@]2(C)[C@@H]3C[C@@H](C)C(=O)C[C@]3(C)CC[C@]12C,IC50,[3],190 nM
N#C/N=C(\NCc1ccccc1)NC1CCN(C(=O)CCc2ccccc2Cl)CC1,inhibition,[1],25.2%
CCOCCOc1ccc(/C=C/c2cc(OC)cc(OC)c2/C=C/[N+](=O)[O-])cc1,IC50,[9],2410 nM
O=C(CBr)NCc1ccc(C(F)(F)F)cc1,IC50,[10],183 nM
CC1(C)OC(=O)C=C[C@]2(C)[C@H]3CC[C@@]4(C)[C@H](C5=CC(=O)NC5=O)C[C@H]5O[C@]54[C@]3(C)OC(=O)C[C@@H]12,IC50,[2],3200 nM
O=C(CCc1ccccc1Cl)N1CCC(n2c(=O)[nH]c3ccccc32)CC1,inhibition,[1],10.3%
CC(C)n1ccc(S(=O)(=O)NC(=O)Nc2c3c(cc4c2CCC4)CCC3)n1 [INZOMELID],IC50,[11],16 nM
CC(C)(O)c1coc(S(=O)(=O)NC(=O)Nc2c3c(cc4c2CCC4)CCC3)c1,remaining at 1 h,[12],> 70%
same,remaining at 1 h,[13],> 70%
same,half-life,[14],3.27 h
CC(=O)O[C@H]1C=C2C=C(C(C)C)C(=O)C(O)=C2[C@@]2(C)CCCC(C)(C)[C@H]12,IC50,[4],230 nM
CCN1CCC(S(=O)(=O)NC(=O)Nc2c3c(cc4c2CCC4)CCC3)CC1 [SELNOFLAST],IC50,[15],350 nM
O=C(O)Cn1c(=O)n(C(=O)CCc2ccccc2Cl)c2ccccc21,inhibition,[1],21.1%
C=C1C(=O)[C@]23[C@H](O)[C@H]1CC[C@H]2[C@@]12CO[C@]3(O)[C@@H](O)[C@@H]1C(C)(C)CC[C@@H]2O [ORIDONIN],IC50,[16],5180 nM
CN[C@@H]1COc2c(S(=O)(=O)NC(=O)Nc3c4c(cc5c3CCC5)CCC4)cnn2C1,solubility,[17],5760 µg/mL
CC(=O)O[C@@H]1C[C@H]2C(C)(C)OC(=O)C=C[C@]2(C)[C@H]2CC[C@]3(C)C(=CC[C@H]3C3=CC(=O)O[C@@H]3O)[C@@]21C,IC50,[2],3200 nM
Cc1ccc(S(=O)(=O)/C=C/C#N)cc1,CC50,[6],6400 nM
CCO[C@H]1C[C@H]2C(C)(C)CCC[C@]2(C)C2=C1C=C(C(C)C)C(=O)C2=O,IC50,[4],230 nM
CC1(C)CCC[C@@]2(C)C1=C(O)C(=O)c1cc(C(C)(C)O)c(O)c(O)c12,IC50,[4],230 nM
O=C(/C=C/S(=O)(=O)c1ccccc1Cl)OCCc1ccccc1,IC50,[5],920 nM
same,CC50,[6],41800 nM
C=C(Cc1ccccc1Cl)C(=O)N1CCC(n2c(=O)[nH]c3ccccc32)CC1,inhibition,[1],14.4%
CCO[C@@H]1C[C@H]2C(C)(C)CCC[C@]2(C)C2=C1C=C(C(C)C)C(=O)C2=O,IC50,[4],230 nM
CC(C)C1=CC2=C[C@H](O)[C@H]3C(C)(C)CCC[C@]3(C)[C@@]2(O)C(=O)C1=O,IC50,[4],230 nM
